Literature values, collected in patent US20220000160A1, “FLAVONOID DELIVERY SYSTEM” (priority 2019, published 2022).

## C[C@@H]1O[C@@H](OC[C@H]2O[C@@H](Oc3c(-c4ccc(O)c(O)c4)oc4cc(O)cc(O)c4c3=O)[C@H](O)[C@@H](O)[C@@H]2O)[C@H](O)[C@H](O)[C@H]1O [Free rutin, quercetin-3-rhamnosylglucoside]
  solubility in ethanol: about 4 % w/v
